Results on 1 compound are retold here after US7579515B2, “Increasing gamete production with a gene switch” (North Carolina State University, priority 2003, dated 2009).

SMILES strings stand for the structures. Some results are limits rather than exact numbers.

In the test the test system is transgenic mice carrying FSHβLCR/tet receptor plus tet operator/FSHβ gene. Nature of the test: Ovulation (oocyte count) in FSHβ-switch transgenic female mice fed Dox. The format is in vivo. The source says: Female mice (7 weeks old) were fed rat chow±Dox (6 gm/kg) and were put with males 6 days after feeding began. Females were checked for copulation plugs am and pm and were euthanized the morning plugs were found; uteri and ovaries were excised from each mouse and oocytes were freed from the ampulla and separated from cumulus cells with hyaluronidase (FIG. 3B). Oocytes were counted (see FIG. 3A). All Dox-fed mice ovulated within 5 days of male exposure except one (19 days) and it produced 90 oocytes. The sheep FSHβLCR was isolated along with its promoter in accordance with standard techniques and operatively associated with a new structural gene, the tet receptor, so that mice carrying this transgene expressed the tet receptor exclusively and strongly in pituitary gonadotropes. Linked to the […] was a second gene unit: the tet operator operatively associated with the structural gene for sheep FSHβ. […] The increase in FSHβ production created more FSH which increased ovulation by 2.4-fold (from an average of 12±0.5 to 29±4). Ovulation of this magnitude is matched only by time-consuming treatments with costly fertility hormones.

Regarding `C[C@H]1c2cccc(O)c2C(=O)C2=C(O)[C@]3(O)C(=O)C(C(N)=O)=C(O)[C@@H](N(C)C)[C@@H]3[C@@H](O)[C@@H]21` [doxycycline], the “time to ovulation after male exposure” value (all Dox-fed mice except one (19 days)) is on record as at most 5 days. Under “the one Dox-fed mouse that ovulated at 19 days of male exposure, oocytes appeared normal”, the “oocytes produced by a single mouse” value is given as 90. The “oocytes ovulated, average” value (transgenic female mice, 7 weeks old, rat chow with Dox 6 gm/kg, put with males 6 days after feeding began, without Dox average 12±0.5) came out at 29±4. Further, the increase in ovulation (transgenic mice, ligand administered vs not administered) was determined as 2.4 fold.
